# Reference: PubChem BioAssay (NCI)
#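 A five-concentration, 48-hour dose response in 96-well plates underlies each endpoint, interpolated linearly between surrounding concentrations. GI50 = concentration required for 50% inhibition of growth. TGI: total growth inhibition.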
# Assays:
# Assay in all cases: NCI-60 cell line screen, 48 h
# OVCAR-4 ovarian = test system: OVCAR-4 ovarian
# HOP-92 NSCLC = test system: HOP-92 NSCLC
# PC-3 prostate = test system: PC-3 prostate
# LOX IMVI melanoma = test system: LOX IMVI melanoma
# HT29 colon = test system: HT29 colon
# KM12 colon = test system: KM12 colon
# NCI-H23 lung = test system: NCI-H23 lung
# NCI-H460 lung = test system: NCI-H460 lung
# MOLT-4 leukemia = test system: MOLT-4 leukemia
# SK-MEL-28 melanoma = test system: SK-MEL-28 melanoma
# UACC-62 melanoma = test system: UACC-62 melanoma
# CCRF-CEM leukemia = test system: CCRF-CEM leukemia
# T-47D breast = test system: T-47D breast
# K-562 leukemia = test system: K-562 leukemia
# IGROV1 ovarian = test system: IGROV1 ovarian
# 786-0 renal = test system: 786-0 renal
# SF-268 CNS = test system: SF-268 CNS
# HS 578T breast = test system: HS 578T breast
# A498 renal = test system: A498 renal
# HOP-62 NSCLC = test system: HOP-62 NSCLC
# A549 NSCLC = test system: A549 NSCLC
# UACC-257 melanoma = test system: UACC-257 melanoma
# BT-549 breast = test system: BT-549 breast
# NCI/ADR-RES ovarian = test system: NCI/ADR-RES ovarian
# SNB-75 CNS = test system: SNB-75 CNS
# HL-60(TB) leukemia = test system: HL-60(TB) leukemia
# SK-OV-3 ovarian = test system: SK-OV-3 ovarian
# OVCAR-5 ovarian = test system: OVCAR-5 ovarian
compound,measurement,setting,value
O=C(/C(=C/c1ccc([N+](=O)[O-])cc1)SCc1ccc(F)cc1)c1ccc(Cl)cc1,TGI,OVCAR-4 ovarian,13 µM
same,GI50,HOP-92 NSCLC,19.2 µM
same,TGI,HOP-92 NSCLC,> 100 µM
same,GI50,PC-3 prostate,3.93 µM
same,TGI,PC-3 prostate,16.2 µM
same,GI50,LOX IMVI melanoma,1.73 µM
same,TGI,LOX IMVI melanoma,3.27 µM
same,GI50,HT29 colon,2.38 µM
same,TGI,HT29 colon,6.2 µM
same,GI50,KM12 colon,2.81 µM
same,TGI,KM12 colon,8.63 µM
same,GI50,NCI-H23 lung,11 µM
same,TGI,NCI-H23 lung,68.7 µM
same,GI50,NCI-H460 lung,19 µM
same,TGI,NCI-H460 lung,> 100 µM
same,GI50,MOLT-4 leukemia,3.54 µM
same,TGI,MOLT-4 leukemia,> 100 µM
same,GI50,SK-MEL-28 melanoma,16.4 µM
same,TGI,SK-MEL-28 melanoma,45.8 µM
same,GI50,UACC-62 melanoma,5.4 µM
same,TGI,UACC-62 melanoma,36.6 µM
same,GI50,CCRF-CEM leukemia,3.17 µM
same,TGI,CCRF-CEM leukemia,> 100 µM
same,GI50,T-47D breast,7 µM
same,TGI,T-47D breast,26.2 µM
same,GI50,K-562 leukemia,3.05 µM
same,TGI,K-562 leukemia,> 100 µM
same,GI50,IGROV1 ovarian,9.4 µM
same,TGI,IGROV1 ovarian,38.7 µM
same,GI50,786-0 renal,10.9 µM
same,TGI,786-0 renal,24.6 µM
same,GI50,SF-268 CNS,9.44 µM
same,TGI,SF-268 CNS,33.5 µM
same,GI50,HS 578T breast,3 µM
same,TGI,HS 578T breast,9.32 µM
same,GI50,A498 renal,> 100 µM
same,TGI,A498 renal,> 100 µM
same,GI50,HOP-62 NSCLC,18.9 µM
same,TGI,HOP-62 NSCLC,47.3 µM
same,GI50,A549 NSCLC,> 100 µM
same,TGI,A549 NSCLC,> 100 µM
same,GI50,UACC-257 melanoma,16 µM
same,TGI,UACC-257 melanoma,34.2 µM
same,GI50,BT-549 breast,3.38 µM
same,TGI,BT-549 breast,16.4 µM
same,GI50,NCI/ADR-RES ovarian,4.57 µM
same,TGI,NCI/ADR-RES ovarian,> 100 µM
same,GI50,SNB-75 CNS,73 µM
same,TGI,SNB-75 CNS,> 100 µM
same,GI50,HL-60(TB) leukemia,4.33 µM
same,TGI,HL-60(TB) leukemia,40.4 µM
same,GI50,SK-OV-3 ovarian,37.1 µM
same,TGI,SK-OV-3 ovarian,> 100 µM
same,GI50,OVCAR-5 ovarian,12.7 µM
same,TGI,OVCAR-5 ovarian,38.9 µM
